According to publication PMC9998502, “Functional selectivity of EM-2 analogs at the mu-opioid receptor” (Frontiers in Pharmacology, 2023):
Like-named read-outs stand apart in the source and are kept apart here. Marks after values point to notes of the source that are not given here. Non-standard residues stand in square brackets, D forms with d. Residues, ends and D or L forms follow the SMILES beside them. Dmt = Cc1cc(O)cc(C)c1C[C@H](N)C(=O)O; d(β3hA) = C[C@@H](N)CC(=O)O

Key:
[1] = biological target: T1, human recombinant mu opioid receptor (Homo sapiens, UniProt P35372); assay: Radioligand binding, [3H]DAMGO displacement, CHO cell membranes
T1 construct: purchased; host or cells: CHO cells (membranes)
T1 sequence (P35372 whole entry): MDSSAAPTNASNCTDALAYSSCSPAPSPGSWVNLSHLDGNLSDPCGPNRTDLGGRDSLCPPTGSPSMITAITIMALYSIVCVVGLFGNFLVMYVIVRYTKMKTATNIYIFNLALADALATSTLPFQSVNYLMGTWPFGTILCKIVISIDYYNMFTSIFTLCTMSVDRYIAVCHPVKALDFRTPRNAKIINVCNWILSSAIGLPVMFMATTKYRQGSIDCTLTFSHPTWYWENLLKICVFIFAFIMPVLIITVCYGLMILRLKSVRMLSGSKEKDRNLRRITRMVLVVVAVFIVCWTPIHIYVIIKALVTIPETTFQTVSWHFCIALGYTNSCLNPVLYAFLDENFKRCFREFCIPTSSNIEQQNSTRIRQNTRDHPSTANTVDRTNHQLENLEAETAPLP

[2] = biological target: mu receptor-β-arrestin 2 interaction (Homo sapiens, UniProt P35372); assay: BRET mu-β-arrestin 2 interaction assay (living SH-SY5Y cells, mu-RLuc/β-arrestin 2-RGFP), agonism
mu receptor-β-arrestin 2 interaction, sequence (P35372 whole entry): as above
Procedure: (§1) SH-SY5Y cells stably co-expressing the fusoproteins mu-RLuc and Gβ1-RGFP or mu-RLuc and β-arrestin 2-RGFP were grown in DMEM/F12 (1:1) medium supplemented with 10% FBS, 2 mM L-Glutamine, 100 μg/mL hygromycin B, 400 μg/mL G418, 100 units/mL penicillin G, 100 μg/mL streptomycin and 1 μg/mL Fungizone at 37°C in a humidified atmosphere with of 5% CO2.
Mu- β-arrestin 2 interaction—Living SH-SY5Y cells expressing mu-RLuc and β-arrestin 2-RGFP were seeded at a cell density of 100,000 cells/well 24 h prior to the test. On the day of the experiment, medium was discarded, and cells were washed with PBS supplemented with 0.5 mM MgCl2, 0.9 mM CaCl2. Cells were subsequently incubated with 2 μM Prolume Purple Coelenterazine (NanoLight Technology, White Mountain, AZ; United States) for 10 min before bioluminescence reading.
(§2) In agonism experiments, ligands were added and incubated for 5 min before microplate reading. […] BRET ratios were computed as follow: RGFPCPS/RLucCPSligand−RGFPCPS/RLucCPSvehicle
(§3) Concentration-response curves to agonists were fitted to the four-parameter logistic non-linear regression model as follows: Effect=Basal+Emax−Basal/1+10^LogEC50−Logligand×HillSlope

delta-opioid receptor [3] = biological target: T2, delta-opioid receptor (Homo sapiens, UniProt P41143); assay: Calcium mobilization assay, CHO delta cells expressing GαqG66Di5; format: cell-based; parameters: expressed in transfected cells; host or cells: CHO cells co-expressing GαqG66Di5; details: inactive = inactive up to 10 µM; for Delta pEC50 (CL95%): calcium mobilization; for Delta α± SEM: intrinsic activity, Emax ratio to standard agonist DPDPE
T2 sequence (P41143 whole entry): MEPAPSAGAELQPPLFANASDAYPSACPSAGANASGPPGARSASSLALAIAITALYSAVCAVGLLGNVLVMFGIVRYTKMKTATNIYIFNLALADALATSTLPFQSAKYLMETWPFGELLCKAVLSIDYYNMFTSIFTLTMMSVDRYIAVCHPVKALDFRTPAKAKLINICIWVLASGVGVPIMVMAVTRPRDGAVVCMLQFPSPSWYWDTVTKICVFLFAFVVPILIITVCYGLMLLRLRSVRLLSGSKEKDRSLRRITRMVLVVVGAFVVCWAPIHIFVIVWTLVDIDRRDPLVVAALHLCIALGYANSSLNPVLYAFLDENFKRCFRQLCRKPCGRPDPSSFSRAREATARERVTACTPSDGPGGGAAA

human mu receptor = biological target: T3, human mu receptor (Homo sapiens, UniProt P35372); assay: Calcium mobilization assay, CHO mu cells expressing Gαqi5; format: cell-based; details: for mu α±SEM: intrinsic activity, Emax ratio to standard agonist EM-2
T3 construct: expressed in transfected cells; host or cells: CHO cells stably co-expressing Gαqi5
T3 sequence (P35372 whole entry): as the sequence (P35372 whole entry) above

delta-opioid receptor [4] = biological target: T2, delta-opioid receptor; assay: Radioligand binding, [3H]deltorphin-2 displacement, CHO cell membranes; parameters: purchased; host or cells: CHO cells (membranes)
[5] = biological target: mu receptor-G protein interaction (Homo sapiens, UniProt P35372); assay: BRET mu-G protein interaction assay (membranes of SH-SY5Y cells, mu-RLuc/Gβ1-RGFP)
mu receptor-G protein interaction, sequence (P62871 whole entry): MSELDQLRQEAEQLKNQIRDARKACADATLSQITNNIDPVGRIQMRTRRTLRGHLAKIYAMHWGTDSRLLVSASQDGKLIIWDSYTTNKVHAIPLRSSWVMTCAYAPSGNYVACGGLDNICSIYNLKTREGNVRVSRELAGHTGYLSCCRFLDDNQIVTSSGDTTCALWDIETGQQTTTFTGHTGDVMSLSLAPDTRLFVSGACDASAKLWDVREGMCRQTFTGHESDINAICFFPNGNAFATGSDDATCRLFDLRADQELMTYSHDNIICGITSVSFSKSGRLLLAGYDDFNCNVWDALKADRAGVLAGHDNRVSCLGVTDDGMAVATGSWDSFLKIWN
mu receptor-G protein interaction, sequence (P35372 whole entry): as the sequence (P35372 whole entry) above
Procedure: as §1
Total protein in membrane preparations was determined by colorimetric method with the Quantum Protein-BCA kit (EuroClone, Pero (MI), IT) and measured using the multiplate reader Victor Nivo (PerkinElmer, Walthman, MA, United States). White opaque 96 wells microplates (PerkinElmer, Walthman, MA, United States) were used to carry out BRET assays. Cell membranes were thawed and resuspended in PBS supplemented with 0.02% BSA before the assay, and an amount of 5 μg of total protein was dispensed in each 96 well. All experiments were carried out at room temperature.
as §2, §3

[6] = Enzymatic degradation in rat brain homogenate; format: in vitro ADME; details: for 100 x k, rate constant of degradation: up to 60 min; for half-life at 0.25 mM: ln2/k, read-out: t1/2, degradation half-life
Procedure: Enzymatic degradation of EM-2 and the analogs was performed measuring their hydrolysis rates in the presence of rat brain homogenate. The homogenate was prepared prior to the experiment. Briefly, rat brains were homogenized in 20 volumes of Tris–HCl (50 mM, pH 7.4) using a Polytron and the obtained aliquots were stored at −80°C. In the experiment, aliquotes of brain homogenate (100 μL, 10 mg protein/mL) were incubated with 100 µL of a peptide (0.5 mM) over 0, 7.5; 15, 22.5; 30, and 60 min at 37°C, in a final volume of 200 µL. After the incubation the degradation reaction was stopped by placing the tube on ice and acidifying the content with 20 µL of HCl (1 M). The aliquots were centrifuged at 20,000 g for 10 min at 4°C. The supernatants were collected and filtered using Millex-GV syringe filters (Millipore). Then the analysis by HPLC on a Vydac C18 column (5 μm, 4.6 × 250 mm), using the solvent system of 0.1% TFA in water (A) and 80% acetonitrile in water containing 0.1% TFA (B) and a linear gradient of 0%–100% B over 25 min, was performed. Three independent experiments for each assay were carried out in duplicate. The rate constants of degradation (k) were obtained by the least square linear regression analysis of logarithmic peak areas [ln (A/AD)], where A—amount of remained peptide, AD—initial amount of peptide versus time. Degradation half-lives (t1/2) were calculated from the rate constants as ln2/k.

[7] = n-Octanol/water partition coefficient (log P); format: physicochemical; details: n-octanol / 0.05 M HEPES buffer in 0.1 M NaCl, pH 7.4
Procedure: Determination of log P was performed according to the method described by ([Liu et al., 2006]). Peptides were dissolved in 0.05 M HEPES buffer in 0.1 M NaCl, pH 7.4, then an equal volume of n-octanol was added and mixtures were vortexed for 2 min. Samples were centrifuged at 4,000 rpm for 1 min. After separation, aqueous and octanol phases were used to quantify peptide content by RP-HPLC.
Octanol phase was lyophilized and reconstituted in 80% acetonitrile in water containing 0.1% TFA before RP-HPLC. All n-octanol/buffer distribution studies were performed in triplicate.

[8] = biological target: T4, human recombinant kappa opioid receptor (Homo sapiens, UniProt P41145); assay: Radioligand binding, [3H]U-69593 displacement, CHO cell membranes
T4 construct: purchased; host or cells: CHO cells (membranes)
T4 sequence (P41145 whole entry): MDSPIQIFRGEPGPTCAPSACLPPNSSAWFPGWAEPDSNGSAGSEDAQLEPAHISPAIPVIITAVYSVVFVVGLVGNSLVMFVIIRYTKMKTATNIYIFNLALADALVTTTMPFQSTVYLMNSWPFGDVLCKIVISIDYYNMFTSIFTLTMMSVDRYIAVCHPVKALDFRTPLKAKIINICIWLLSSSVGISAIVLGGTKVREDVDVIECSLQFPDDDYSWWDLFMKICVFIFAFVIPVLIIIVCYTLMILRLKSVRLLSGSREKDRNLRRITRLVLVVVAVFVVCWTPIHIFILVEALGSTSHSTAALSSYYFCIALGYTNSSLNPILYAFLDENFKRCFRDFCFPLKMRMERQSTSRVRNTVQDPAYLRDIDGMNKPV

human kappa receptor = biological target: T5, human kappa receptor (Homo sapiens, UniProt P41145); assay: Calcium mobilization assay, CHO kappa cells expressing Gαqi5; format: cell-based; details: inactive = inactive up to 10 µM; for Kappa pEC50 (CL95%): calcium mobilization; for Kappa α± SEM: intrinsic activity, Emax ratio to standard agonist dynorphin A
T5 construct: expressed in transfected cells; host or cells: CHO cells stably co-expressing Gαqi5
T5 sequence (P41145 whole entry): as above

mu receptor = assay: Bias factor, mu-G protein vs mu-β-arrestin 2 (BRET), EM-2 as standard ligand; details: log10 units, towards G protein
[9] = [3H]DAMGO, n ≥ 3, read-out: Ki ± SEM, mu
[10] = calcium mobilization, inactive = inactive up to 10 µM, read-out: mu pEC50 (CL95%) (converted)
[11] = inactive = inactive up to 10 µM
[12] = [3H]deltorphin-2, n ≥ 3, read-out: Ki ± SEM, Delta
[13] = rat, pH 7.4, rat brain homogenate, 37°C

Structure (SMILES) | EC50 [2] [nM] | Delta pEC50 (CL95%) (delta-opioid receptor [3]) | Delta α± SEM (delta-opioid receptor [3]) | mu α±SEM (human mu receptor; [11]) | EC50 [5] [nM] | 100 x k, rate constant of degradation ([6]; 37°C) [per min] | logD [7] | Ki [8] [nM] | Kappa pEC50 (CL95%) (human kappa receptor) | Kappa α± SEM (human kappa receptor) | Bias factor (CL95%) (mu receptor) | Ki [1] [nM] | EC50 (human mu receptor) [nM] | Ki (delta-opioid receptor [4]) [nM] | half-life at 0.25 mM [6, 13] [h] | further results
C[C@H](CNC(=O)[C@@H](N)Cc1ccc(O)cc1)C(=O)N[C@@H](Cc1ccccc1)C(=O)N[C@@H](Cc1ccccc1)C(N)=O [analog 6, Tyr-(R)-β ^ 2 -Ala-Phe-Phe-NH2] | 14100 | inactive | inactive | 0.88 ± 0.06 | 417 | 1.03 ± 0.07 | 1.75 | > 1000 | inactive | inactive | 1.35 (1.15–1.55) | – | – | – | – | Ki [1, 9]: 46.8 ± 5.18 nM; β-Arrestin 2 Emax±sem [2]: ∼1 ^a; EC50 (human mu receptor; [10]): 30.2 nM; Ki (delta-opioid receptor [4]; [12]): > 1000 nM; half-life at 0.25 mM ([6]; pH 7.4, 37°C): 1.11 ± 0.045 h
Cc1cc(O)cc(C)c1C[C@H](N)C(=O)N1CCC[C@@H](C(=O)N[C@@H](Cc2ccccc2)C(=O)N[C@@H](Cc2ccccc2)C(N)=O)C1 [analog 5, Dmt-(R)-Nip-Phe-Phe-NH2] | 3.63 | inactive | inactive | 1.00 ± 0.02 | 1.1 | 0.77 ± 0.06 | 1.8 | 567 ± 39 | inactive | inactive | −0.08 (−0.25-0.10) | 0.14 ± 0.06 | 0.316 | 589 ± 28 | 1.49 ± 0.05 | –
NC(=O)[C@H](Cc1ccccc1)NC(=O)[C@H](Cc1ccccc1)NC(=O)[C@@H]1CCCN(C(=O)[C@@H](N)Cc2ccc(O)cc2)C1 [analog 4, Tyr-(R)-Nip-Phe-Phe-NH2] | 43.7 | inactive | inactive | 0.99 ± 0.04 | 11.2 | 1.05 ± 0.08 | 1.68 | > 1000 | inactive | inactive | −0.02 (−0.04-0.00) | – | – | – | – | Ki [1, 9]: 0.85 ± 0.17 nM; β-Arrestin 2 Emax±sem [2]: 1.30 ± 0.03; EC50 (human mu receptor; [10]): 2.69 nM; Ki (delta-opioid receptor [4]; [12]): > 1000 nM; half-life at 0.25 mM ([6]; pH 7.4, 37°C): 1.09 ± 0.04 h
C[C@H](CC(=O)N[C@@H](Cc1ccccc1)C(=O)N[C@@H](Cc1ccccc1)C(N)=O)NC(=O)[C@@H](N)Cc1ccc(O)cc1 [analog 8, Tyr-(R)-β ^ 3 -Ala-Phe-Phe-NH2] (H-Y[d(β3hA)]FF-NH2; N-terminus assumed) | 77.6 | inactive | inactive | 0.99 ± 0.02 | 7.41 | 0.82 ± 0.04 | 1.71 | > 1000 | inactive | inactive | 0.76 (0.55–0.98) | 0.44 ± 0.1 | 1 | > 1000 | 1.4 ± 0.065 | –
Cc1cc(O)cc(C)c1C[C@H](N)C(=O)N[C@H](C)CC(=O)N[C@@H](Cc1ccccc1)C(=O)N[C@@H](Cc1ccccc1)C(N)=O [analog 9, Dmt-(R)-β ^ 3 -Ala-Phe-Phe-NH2] (H-[Dmt][d(β3hA)]FF-NH2; N-terminus assumed) | 2.14 | inactive | inactive | 1.00 ± 0.05 | 0.724 | 1.90 ± 0.04 | 2.09 | 890 ± 42 | inactive | inactive | 0.27 (0.16–0.38) | 0.14 ± 0.07 | 0.457 | 286 ± 18 | 0.605 ± 0.0467 | –
NC(=O)[C@H](Cc1ccccc1)NC(=O)C[C@@H](Cc1cccc2ccccc12)NC(=O)[C@@H]1CCCN1C(=O)[C@@H](N)Cc1ccc(O)cc1 [analog 12, Tyr-Pro-(R)-β ^ 3 -1-Nal-Phe-NH2] | 145 | inactive | inactive | 0.97 ± 0.02 | 77.6 | 1.28 ± 0.05 | 3.01 | > 1000 | inactive | inactive | 0.23 (0.06–0.41) | – | 47.9 | > 1000 | 0.898 ± 0.0683 | –
Cc1cc(O)cc(C)c1C[C@H](N)C(=O)N1CCC[C@H]1C(=O)N[C@@H](CC(=O)N[C@@H](Cc1ccccc1)C(N)=O)Cc1cccc2ccccc12 [analog 13, Dmt-Pro-(R)-β ^ 3 -1-Nal-Phe-NH2] | 4.37 | inactive | inactive | 0.77 ± 0.02 | 3.63 | 1.69 ± 0.07 | 3.16 | – | inactive | inactive | 0.27 (0.20–0.34) | – | 3.8 | – | 0.68 ± 0.0667 | –
Cc1cc(O)cc(C)c1C[C@H](N)C(=O)N1CCC[C@H]1C(=O)N[C@@H](Cc1ccccc1)C(=O)N[C@@H](Cc1ccccc1)C(N)=O [analog 1, Dmt-Pro-Phe-Phe-NH2] | 11.7 | inactive | inactive | 0.85 ± 0.02 | 3.09 | 3.31 ± 0.12 | 2.16 | – | – | – | 0.48 (0.34–0.62) | 0.54 ± 0.03 | 2.51 | 560 ± 41 | 0.347 ± 0.02 | fold higher potency than EM-2 (human mu receptor; calcium mobilization, mu): 3 fold
Cc1cc(O)cc(C)c1C[C@H](N)C(=O)NC[C@@H](C)C(=O)N[C@@H](Cc1ccccc1)C(=O)N[C@@H](Cc1ccccc1)C(N)=O [analog 7, Dmt-(R)-β ^ 2 -Ala-Phe-Phe-NH2] | 19.1 | inactive | inactive | 0.95 ± 0.03 | 4.57 | 0.51 ± 0.03 | 2.33 | 807 ± 46 | inactive | inactive | 0.67 (0.49–0.84) | 0.31 ± 0.09 | 0.692 | 571 ± 55 | 2.26 ± 0.0717 | –
